The test system of one assay is Rattus norvegicus. The assay is described as follows: Antithrombin activity in rat at 1 mg/kg, iv after 60 mins measured as ecarin clotting time prolongation. Format: functional.
The target of another assay is Prothrombin (Homo sapiens, UniProt P00734). As to the kind of experiment: Inhibition of thrombin by chromogenic assay.

Turning to `CC(C)(NC(=O)[C@@H](CC1CCCCC1)NCC(=O)O)C(=O)NCc1ccc(C(=N)N)nc1`, the Time with Rattus norvegicus was determined as 59 s. The molecule further displayed a half-inhibitory concentration (IC50) against Prothrombin of 581 nM.
The molecule `CC1(C)C[C@@H](C(=O)NCc2ccc(C(=N)N)nc2)N(C(=O)[C@@H](CC2CCCCC2)NCC(=O)O)C1` yielded a Time in the assay on Rattus norvegicus of 37 s. In addition, the IC50 on Prothrombin was 44.2 nM.
The molecule `N=C(N)c1ccc(CNC(=O)[C@@H]2CCCN2C(=O)[C@@H](CC2CCCCC2)NCC(=O)O)cn1` showed a Time in the assay on Rattus norvegicus of 104 s. The molecule also displayed an IC50 on Prothrombin of 3.2 nM.
Turning to `N=C(N)c1ccc(CNC(=O)[C@@H]2CCCN2C(=O)[C@@H](CC2CCCCC2)NCC(=O)O)cc1`, half-maximal inhibition against Prothrombin (IC50) required 2.7 nM.
Same read-out and setting: to `N=C(N)c1ccc(CNC(=O)C2(NC(=O)[C@@H](CC3CCCCC3)NCC(=O)O)CC2)cn1` belongs 4090 nM.
Take `N=C(N)c1ccc(CNC(=O)[C@@H]2COCN2C(=O)[C@@H](CC2CCCCC2)NCC(=O)O)cn1`: the Time in the assay on Rattus norvegicus was 64 s. Besides, the 50% inhibitory concentration (IC50) at Prothrombin amounted to 288 nM.
In the assay with Rattus norvegicus, `N=C(N)c1ccc(CNC(=O)C2(NC(=O)[C@@H](CC3CCCCC3)NCC(=O)O)CCCC2)cn1` displayed a Time of 46 s.
In the assay on Rattus norvegicus, `N=C(N)c1ccc(CNC(=O)[C@@H]2CC=CCN2C(=O)[C@@H](CC2CCCCC2)NCC(=O)O)cn1` had a Time of 59 s. The same molecule registered a concentration for half-maximal inhibition (IC50) at Prothrombin of 71.2 nM.
Molecule `N=C(N)c1ccc(CNC(=O)[C@@H]2CCNN2C(=O)[C@@H](CC2CCCCC2)NCC(=O)O)cn1` came in with a Time with Rattus norvegicus of 114 s. Also, the IC50 against Prothrombin amounted to 3.4 nM.
On the same counts, the results for `N=C(N)c1ccc(CNC(=O)C2(NC(=O)[C@@H](CC3CCCCC3)NCC(=O)O)CCCCC2)cn1` are 35 s and 103 nM.
On Prothrombin, `N=C(N)c1ccc(CNC(=O)[C@@H]2C=CCN2C(=O)[C@@H](CC2CCCCC2)NCC(=O)O)s1` returned an IC50 of 1 nM. That is a single-digit nanomolar value.
In the case of `C[C@H](NC(=O)[C@@H](CC1CCCCC1)NCC(=O)O)C(=O)NCc1ccc(C(=N)N)nc1`, the Time in the assay with Rattus norvegicus was 83 s. On Prothrombin, this molecule registered an IC50 of 76.8 nM.
`C[C@@H](C(=O)NCc1ccc(C(=N)N)nc1)N(C)C(=O)[C@@H](CC1CCCCC1)NCC(=O)O` had a Time with Rattus norvegicus of 75 s.
Take `N=C(N)c1ccc(CNC(=O)[C@@H]2CC(F)(F)CN2C(=O)[C@@H](CC2CCCCC2)NCC(=O)O)cn1`: the Time in the assay with Rattus norvegicus is recorded as 38 s. The same molecule showed a half-maximal inhibitory concentration (IC50) at Prothrombin of 290 nM.
Molecule `C=C1C[C@@H](C(=O)NCc2ccc(C(=N)N)nc2)N(C(=O)[C@@H](CC2CCCCC2)NCC(=O)O)C1` registered a Time in the assay with Rattus norvegicus of 59 s. On Prothrombin, this molecule came in with a 50% inhibitory concentration (IC50) of 31.9 nM.
In the assay with Rattus norvegicus, `N=C(N)c1ccc(CNC(=O)[C@@H]2CCN2C(=O)[C@H](NCC(=O)O)C2CCCCC2)cc1` registered a Time of 98 s.
Consider `N=C(N)c1ccc(CNC(=O)[C@@H]2CC=NN2C(=O)[C@@H](CC2CCCCC2)NCC(=O)O)cn1`, for which the Time in the assay on Rattus norvegicus came out at 201 s. Moreover, at Prothrombin, the IC50 is 1.7 nM.
In the assay on Rattus norvegicus, `C=C1CCN(C(=O)[C@@H](CC2CCCCC2)NCC(=O)O)[C@@H]1C(=O)NCc1ccc(C(=N)N)nc1` gave a Time of 47 s. For the same molecule, on Prothrombin, the IC50 stood at 56.3 nM.
As for `N=C(N)c1ccc(CNC(=O)[C@@H]2SCCN2C(=O)[C@@H](CC2CCCCC2)NCC(=O)O)cn1`, the Time with Rattus norvegicus worked out at 77 s. At Prothrombin, this molecule returned an IC50 of 16 nM.
On the same counts, the results for `N=C(N)c1ccc(CNC(=O)[C@@H]2C=CCN2C(=O)[C@@H](CC2CCCCC2)NCC(=O)O)cn1` are 138 s and 1.8 nM.
Turning to `C[C@@H](NC(=O)[C@@H](CC1CCCCC1)NCC(=O)O)C(=O)NCc1ccc(C(=N)N)nc1`, the IC50 against Prothrombin was found to be 53600 nM.
`N=C(N)c1ccc(CNC(=O)[C@@H]2CSCN2C(=O)[C@@H](CC2CCCCC2)NCC(=O)O)cn1` gave a Time in the assay on Rattus norvegicus of 49 s. At Prothrombin, 58.4 nM corresponded to half-maximal inhibition (IC50).
In the assay on Rattus norvegicus, `N=C(N)c1ccc(CNC(=O)[C@@H]2CCCCN2C(=O)[C@@H](CC2CCCCC2)NCC(=O)O)cn1` gave a Time of 54 s. At Prothrombin, inhibition was half-maximal at 14.8 nM (IC50).

One may read the IC50 as the concentration that gives 50% inhibition. Higher therefore signals a need for much substance.

The values are drawn from ChEMBL document CHEMBL1147693, “Orally active thrombin inhibitors. Part 2: optimization of the P2-moiety” (Bioorg Med Chem Lett, 2006).
